# Patent EP2966448B1, “METHOD FOR THE PREDICTION OR PROGNOSIS OF THE RESPONSE OF A HUMAN SUBJECT SUFFERING FROM CANCER TO TREATMENT WITH AN ANTAGONIST OF THE NK1 RECEPTOR” (priority 2013, dated 2014)
# Where two headings read alike, the source gives them in different places.
# Key:
# [1] = tested on: Carcinoma of the uterine cervix; test: Inhibition of primary tumor cell cultures (48 hours) vs NK1 receptor immunostaining (Example 1); format: cell-based; settings: Homo sapiens, 1 micromolar, read-out: Percentage of inhibition of cell cultures
# Experimental: (§1) Cell cultures. To obtain tumor cells from human primary tumors we used the method described in De Bari et al. (De Bari et al. 2001). Briefly, small pieces of the tumors were digested into a hyaluronidase solution (Sigma-Aldrich, USA) at a concentration of 1 mg/ml during 15 minutes at 37°C, and then they were treated with 6 mg/ml of collagenase type IV (Invitrogen) during 2 hours at 37°C. Consecutively, cells were washed, and resuspended in the DMEM culture medium with high concentration of glucose (Dulbecco's Modified Eagle's Medium, Invitrogen) supplemented with 1% of antibiotics-antimycotics (Invitrogen) and with 1% of sodium pyruvate (Invitrogen), and the cells were seeded in culture slides at a concentration of 10.000 cells per square centimeter. When cells reached confluence, the adherent cells were separated using sterile trypsin at 0,5% (Invitrogen) and they were used among passages 3 and 9. For the assays shown next, tumor cells were seeded on slides at a concentration of 25.000 cells per well. A total of 6 wells containing the tumor cells were used as survival control. […] All the cultures were kept during 48 hours and later on recollected for their analysis.
# (§2) Immunohistochemistry techniques. The presence of NK1 receptors was also analyzed using immunohistochemistry techniques. Briefly, a sample of each of the cultures of the cell lines used in the present invention, was centrifuged (5 minutes at 1.500 rpm) and the pellet obtained was dehydrated using increasing concentrations of ethanol and, finally, xylol. Then, said dehydrated samples were embedded in paraffin, creating a block of cells. Such paraffin blocks were cut with a microtome at 5 microns thickness, and were placed on microscope slides adequate to perform immunohistochemistry techniques. Consecutively, they were de-paraffinized by immersing them in xylol, to be finally hydrated using a solution containing decreasing concentrations of ethanol, and finally submerged them into water. […] After this, the samples were left to cool down at room temperature for 10 minutes. The endogenous peroxidase activity was blocked with 3% peroxide of hydrogen for 30 minutes at room temperature. After washing the samples with 0.05 M of Tris buffer, they were incubated with 10% non-immune pork serum at for 30 minutes at room temperature. To analyze the expression of NK1 receptors, the cellular samples were incubated in the presence of anti-NK1 antibodies (S8305, Sigma-Aldrich) diluted 1:1000, overnight at 4°C. Afterwards, the samples were washed in Tris buffer 0.05 M at room temperature. The next step was the addition of Envision System-HRP (Dako) reagents for 30 minutes at room temperature. Then, the samples were washed again in Tris buffer 0.05 M and the immunoreactivity was visualized through light microscopy with a chromogenic solution containing 3,3'-Diaminobenzidine (DAB+; Dako, USA). To differentiate the cell nuclei, they were slightly stained with hematoxylin. As negative control, it was used samples not incubated with the primary antibody anti-NK1, which was replaced by non-immune serum. All the samples were evaluated.
# (§3) To value the immunostaining in each of the cases six cuts were performed to be analyzed by the immunohistochemistry technique. In each of the six cuts, it was counted cells in 20 fields (magnification 400x) using an Olympus microscope (model CX31). In each field it was counted the total number of cells and the number of cells presenting immunostaining, calculating afterwards the percentage of cells which presented immunostaining.
# [2] = tested on: human primary tumor cells; test: Inhibition of primary tumor cell cultures vs absence or presence of AKT protein (Example 4; tumor type per table line); format: cell-based; settings: cancer cell cultures showing more presence of AKT, compared; non-peptidic antagonists 100 micromolar, antibody 1/50
# Experimental: (§4) Cell cultures. […] Briefly, small pieces of the tumors were digested into a hyaluronidase solution (Sigma-Aldrich, USA) at a concentration of 1 mg/ml during 15 minutes at 37°C, and then they were treated with 6 mg/ml of collagenase type IV (Invitrogen) during 2 hours at 37°C. Consecutively, cells were washed, and resuspended in the DMEM culture medium with high concentration of glucose (Dulbecco's Modified Eagle's Medium, Invitrogen) supplemented with 1% of antibiotics-antimycotics (Invitrogen) and with 1% of sodium pyruvate (Invitrogen), and the cells were seeded in culture slides at a concentration of 10.000 cells per square centimeter. When cells reached confluence, the adherent cells were separated using sterile trypsin at 0,5% (Invitrogen) and they were used among passages 3 and 9. For the assays shown next, tumor cells were seeded on slides at a concentration of 25.000 cells per well. A total of 6 wells containing the tumor cells were used as survival control. […] All the cultures were kept during 48 hours and later on recollected for their analysis.
# Afterwards, the cells were cultured in presence of several antagonists of the NK1 receptor.
# In each case it was determined the presence or absence of the AKT protein effector downstream in the PI3 Kinases pathway.
# To determine the presence of the AKT protein in the different cultures Western Blot technique was performed (following the description in example 1-Western Blot section), but using as primary antibody with reference: Akt (pan) (11E7) Rabbit mAb (4685, Cell Signalling).
# The antibody against NK1 receptor (Table 26) was used at 1/50 concentration. The percentages of inhibition are expressed in percentage of variation in relation to control ± standard deviation.
# [3] = tested on: Gastric carcinoma (Adenocarcinoma); test: Inhibition of primary tumor cell cultures vs Kras mutation (Example 2); format: cell-based, human; settings: Gastric carcinoma (Adenocarcinoma), 100 micromolar
# Experimental: as §4
# (§5) In each case the presence or not of mutations in K-ras gene was determined.
# (§6) To determine the existence of mutations in the K-ras gene DNA from cancer tumor cells was extracted from samples obtained from the different cancer tumor cells, using DNA extraction kits from Takara (Madison, WI, US) or Ambion (Huntingdon, Cambridgeshire, United Kingdom), following the manufacturer's instructions, and as it has been previously published (Di Fiore F, et al. 2007). Consecutively it was analyzed by sequencing the exon 2 of the KRAS gene, , by means of PCR amplification from previously extracted cancer tumor DNA, using the following sense primer (SEQ ID NO. 15): 5'-[sequence]-3' and anti-sense primer (SEQ ID NO. 16): 5'-[sequence]-3'. After the purification using the Qiagen extraction kit, the PCR products were sequenced using the Big Dye Terminator Kit V3.1 (Applied Biosystems, Foster City, CA, U.S.) and an ABI Prism 377 or 3100 DNA sequencer (Applied Biosystems). The presence of a heterozygous mutation in the KRAS gene in cancer tumor cells of the cultures was defined as the appearance of a mutant peak of a height of at least a third of the wild type. All the sequence analysis were executed at least twice in two independent PCR.
# (§7) The antibody against NK1 receptor (Table 16) was used at 1/50 concentration. The percentages of inhibition are expressed in percentage of variation in relation to control ± standard deviation.
# [4] = tested on: Burkitt Lymphoma; test: as above; format: cell-based, human; settings: Burkitt Lymphoma, 100 micromolar
# Experimental: as §1, §5, §6, §7
# [5] = tested on: human primary tumor cells; test: Inhibition of primary tumor cell cultures vs low or high expression of the truncated form of NK1 receptor (Example 5; tumor type per table line); format: cell-based; settings: for Percentage of inhibition of cell cultures: 100 micromolar
# Experimental: as §1
# The presence of the truncated form of NK1 receptor was determined and then cells were cultured in presence of several antagonists of the NK1 receptor.
# In each case the presence of the truncated form of the NK1 receptor was determined.
# To determine the presence of the truncated form of the gene of NK1 receptor PCR technique was performed (Polymerase Chain Reaction). The extraction of RNA, amplifications of PCR, cycle conditions and quantitative analysis were executed as it has been previously described. The specific primers were the following: For the full-length NK1R receptor (NM_001058.3; forward (SEQ ID NO: 17)-: 5'-[sequence]-3 ' and reverse- (SEQ ID NO:18): 5'-[sequence]-3') and for the truncated NK1receptor (NM_015727.2; forward (SEQ ID NO: 19): 5'-[sequence]-3 and reverse (SEQ ID NO;20): 5'-[sequence]-3').
# Cases were distributed in two groups: • Group A -low expression of the truncated form of NK1 receptor- for those cases wherein the expression of the truncated form of NK1 receptor was less than double the expression of the full length form of such receptor. • Group B -high expression of the truncated form of NK1 receptor- for those cases wherein the expression of the truncated form of the NK1 receptor was higher than double the expression of the full length form of such receptor.
# The percentages of inhibition are expressed in percentage of variation in relation to the control ± standard deviation.
# [6] = tested on: Urinary bladder carcinoma (transitional cell carcinoma); test: Inhibition of primary tumor cell cultures vs Kras mutation (Example 2); format: cell-based, human; settings: Urinary bladder carcinoma (transitional cell carcinoma), 100 micromolar
# Experimental: (§8) To obtain tumor cells from human primary tumors we used the method described in De Bari et al. (De Bari et al. 2001). Briefly, small pieces of the tumors were digested into a hyaluronidase solution (Sigma-Aldrich, USA) at a concentration of 1 mg/ml during 15 minutes at 37°C, and then they were treated with 6 mg/ml of collagenase type IV (Invitrogen) during 2 hours at 37°C. Consecutively, cells were washed, and resuspended in the DMEM culture medium with high concentration of glucose (Dulbecco's Modified Eagle's Medium, Invitrogen) supplemented with 1% of antibiotics-antimycotics (Invitrogen) and with 1% of sodium pyruvate (Invitrogen), and the cells were seeded in culture slides at a concentration of 10.000 cells per square centimeter. When cells reached confluence, the adherent cells were separated using sterile trypsin at 0,5% (Invitrogen) and they were used among passages 3 and 9. For the assays shown next, tumor cells were seeded on slides at a concentration of 25.000 cells per well. A total of 6 wells containing the tumor cells were used as survival control. […] All the cultures were kept during 48 hours and later on recollected for their analysis.
# as §5, §6, §7
# [7] = tested on: Fibrosarcoma; test: Inhibition of primary tumor cell cultures (48 hours) vs NK1 receptor immunostaining (Example 1); format: cell-based; settings: Homo sapiens, 1 micromolar, read-out: Percentage of inhibition of cell cultures
# Experimental: as §1, §2, §3
# [8] = tested on: Breast carcinoma (ductal adenocarcinoma); test: Inhibition of primary tumor cell cultures vs Kras mutation (Example 2); format: cell-based, human; settings: Breast carcinoma (ductal adenocarcinoma), 100 micromolar
# Experimental: as §4, §5, §6, §7
# [9] = tested on: Pancreatic carcinoma (Adenocarcinoma); test: as above; format: cell-based, human; settings: Pancreatic carcinoma (Adenocarcinoma), 100 micromolar
# Experimental: as §4, §5, §6, §7
# [10] = tested on: Neuroblastoma; test: Inhibition of primary tumor cell cultures (48 hours) vs NK1 receptor immunostaining (Example 1); format: cell-based; settings: Homo sapiens, 1 micromolar, read-out: Percentage of inhibition of cell cultures
# Experimental: as §1, §2, §3
# [11] = tested on: Lung carcinoma (non small cell lung carcinoma); test: Inhibition of primary tumor cell cultures vs Kras mutation (Example 2); format: cell-based, human; settings: Lung carcinoma (non small cell lung carcinoma), 100 micromolar
# Experimental: as §8, §5, §6, §7
# [12] = tested on: Prostate carcinoma; test: as above; format: cell-based, human; settings: Prostate carcinoma, 100 micromolar
# Experimental: as §1, §5, §6
# The percentages of inhibition are expressed in percentage of variation in relation to control ± standard deviation.
# [13] = tested on: Gastric carcinoma; test: Inhibition of primary tumor cell cultures (48 hours) vs NK1 receptor immunostaining (Example 1); format: cell-based; settings: Homo sapiens, 1 micromolar, read-out: Percentage of inhibition of cell cultures
# Experimental: as §1, §2, §3
# [14] = NK1 receptor immunostaining Group 1 (less than 20% of the cells)
# [15] = NK1 receptor immunostaining Group 2 (20-80% of the cells)
# [16] = NK1 receptor immunostaining Group 3 (more than 80% of the cells)
# [17] = NK1 receptor immunostaining Intensity grade 1
# [18] = NK1 receptor immunostaining Intensity grade 2
# [19] = NK1 receptor immunostaining Intensity grade 3
# [20] = Cases with Kras non-mutated (wild type)
smiles,measurement,setting,value
Cc1cc(F)ccc1[C@H]1CNCCN1C(=O)N(C)[C@H](C)c1cc(C(F)(F)F)cc(C(F)(F)F)c1 [Vestipitant],inhibition at 1 µM,[1]; [14],17 ± 4%
same,inhibition at 1 µM,[1]; [15],46 ± 3%
same,inhibition at 1 µM,[1]; [16],94 ± 4%
same,inhibition at 1 µM,[1]; [17],19 ± 3%
same,inhibition at 1 µM,[1]; [18],48 ± 3%
same,inhibition at 1 µM,[1]; [19],94 ± 3%
same,inhibition of cell proliferation,[2],higher inhibition
same,Percentage of inhibition of cell cultures,[3]; Cases with Kras mutated,24±4 percentage
same,Percentage of inhibition of cell cultures,[3]; [20],96±4 percentage
same,Percentage of inhibition of cell cultures,[4]; Cases with Kras mutated,24±3 percentage
same,Percentage of inhibition of cell cultures,[4]; [20],95±3 percentage
same,Percentage of inhibition of cell cultures,"[5]; Glioma (astrocytoma), Cases with high expression of the truncated form of NK1 receptor (Group B)",94±5 percentage
same,Percentage of inhibition of cell cultures,"[5]; Glioma (astrocytoma), Cases with low expression of the truncated form of NK1 receptor (Group A)",25±5 percentage
same,Percentage of inhibition of cell cultures,"[5]; Lung carcinoma (non small cell lung carcinoma), Cases with high expression of the truncated form of NK1 receptor (Group B)",94±4 percentage
same,Percentage of inhibition of cell cultures,"[5]; Lung carcinoma (non small cell lung carcinoma), Cases with low expression of the truncated form of NK1 receptor (Group A)",26±4 percentage
same,Percentage of inhibition of cell cultures,"[5]; Melanoma (Nodular Melanoma), Cases with high expression of the truncated form of NK1 receptor (Group B)",96±4 percentage
same,Percentage of inhibition of cell cultures,"[5]; Melanoma (Nodular Melanoma), Cases with low expression of the truncated form of NK1 receptor (Group A)",24±5 percentage
same,Percentage of inhibition of cell cultures,"[5]; Non Hodgkin Lymphoma B (diffuse B cell lymphoma), Cases with high expression of the truncated form of NK1 receptor (Group B)",98±5 percentage
same,Percentage of inhibition of cell cultures,"[5]; Non Hodgkin Lymphoma B (diffuse B cell lymphoma), Cases with low expression of the truncated form of NK1 receptor (Group A)",23±5 percentage
same,Percentage of inhibition of cell cultures,"[5]; Non Hodgkin Lymphoma T (diffuse T cell lymphoma), Cases with high expression of the truncated form of NK1 receptor (Group B)",98±4 percentage
same,Percentage of inhibition of cell cultures,"[5]; Non Hodgkin Lymphoma T (diffuse T cell lymphoma), Cases with low expression of the truncated form of NK1 receptor (Group A)",23±4 percentage
same,Percentage of inhibition of cell cultures,"[5]; Prostate carcinoma, Cases with high expression of the truncated form of NK1 receptor (Group B)",95±6 percentage
same,Percentage of inhibition of cell cultures,"[5]; Prostate carcinoma, Cases with low expression of the truncated form of NK1 receptor (Group A)",24±6 percentage
same,Percentage of inhibition of cell cultures,"[5]; Thyroid carcinoma (follicular carcinoma), Cases with high expression of the truncated form of NK1 receptor (Group B)",95±5 percentage
same,Percentage of inhibition of cell cultures,"[5]; Thyroid carcinoma (follicular carcinoma), Cases with low expression of the truncated form of NK1 receptor (Group A)",27±3 percentage
same,Percentage of inhibition of cell cultures,"[5]; Thyroid carcinoma (papillary carcinoma), Cases with high expression of the truncated form of NK1 receptor (Group B)",96±6 percentage
same,Percentage of inhibition of cell cultures,"[5]; Thyroid carcinoma (papillary carcinoma), Cases with low expression of the truncated form of NK1 receptor (Group A)",26±5 percentage
same,Percentage of inhibition of cell cultures,"[5]; Undifferentiated Pleomorphic Sarcoma (malignant fibrous histiocytoma grade 3), Cases with high expression of the truncated form of NK1 receptor (Group B)",95±3 percentage
same,Percentage of inhibition of cell cultures,"[5]; Undifferentiated Pleomorphic Sarcoma (malignant fibrous histiocytoma grade 3), Cases with low expression of the truncated form of NK1 receptor (Group A)",26±4 percentage
same,Percentage of inhibition of cell cultures,"[5]; Urinary bladder carcinoma (transitional cell carcinoma), Cases with high expression of the truncated form of NK1 receptor (Group B)",94±5 percentage
same,Percentage of inhibition of cell cultures,"[5]; Urinary bladder carcinoma (transitional cell carcinoma), Cases with low expression of the truncated form of NK1 receptor (Group A)",25±4 percentage
same,inhibition of cell proliferation,"[5]; cancer cell cultures that show more expression of the truncated form of NK1 receptor, compared, non-peptidic antagonists 100 micromolar, antibody 1/50",higher inhibition
same,Percentage of inhibition of cell cultures,[6]; Cases with Kras mutated,25±5 percentage
same,Percentage of inhibition of cell cultures,[6]; [20],95±6 percentage
same,inhibition at 1 µM,[7]; [14],16 ± 3%
same,inhibition at 1 µM,[7]; [15],45 ± 3%
same,inhibition at 1 µM,[7]; [16],91 ± 3%
same,inhibition at 1 µM,[7]; [17],18 ± 2%
same,inhibition at 1 µM,[7]; [18],47 ± 3%
same,inhibition at 1 µM,[7]; [19],91 ± 2%
same,Percentage of inhibition of cell cultures,[8]; Cases with Kras mutated,26±4 percentage
same,Percentage of inhibition of cell cultures,[8]; [20],97±5 percentage
same,Percentage of inhibition of cell cultures,[9]; Cases with Kras mutated,24±4 percentage
same,Percentage of inhibition of cell cultures,[9]; [20],97±4 percentage
same,inhibition at 1 µM,[10]; [14],17 ± 2%
same,inhibition at 1 µM,[10]; [15],46 ± 3%
same,inhibition at 1 µM,[10]; [16],93 ± 3%
same,inhibition at 1 µM,[10]; [17],16 ± 1%
same,inhibition at 1 µM,[10]; [18],49 ± 5%
same,inhibition at 1 µM,[10]; [19],93 ± 4%
same,Percentage of inhibition of cell cultures,[11]; Cases with Kras mutated,24±5 percentage
same,Percentage of inhibition of cell cultures,[11]; [20],96±6 percentage
same,Percentage of inhibition of cell cultures,[12]; Cases with Kras mutated,24±4 percentage
same,Percentage of inhibition of cell cultures,[12]; [20],96±4 percentage
same,inhibition at 1 µM,[13]; [14],11 ± 3%
same,inhibition at 1 µM,[13]; [15],48 ± 3%
same,inhibition at 1 µM,[13]; [16],92 ± 3%
